Measured values from patent US10213433B2 (AbbVie Inc., priority 2010, dated 2019).

Target: Bcl-2 protein (Homo sapiens (Human), UniProt P10415)
Experiment: Bcl-2 binding TR-FRET (Time-Resolved Fluorescence-Resonance-Energy-Transfer) assay
Conditions: inhibition constant for binding to Bcl-2 protein
From the text: The smaller the Ki value, the greater is the binding affinity.

Chain of Bcl-2 protein (P10415 whole entry): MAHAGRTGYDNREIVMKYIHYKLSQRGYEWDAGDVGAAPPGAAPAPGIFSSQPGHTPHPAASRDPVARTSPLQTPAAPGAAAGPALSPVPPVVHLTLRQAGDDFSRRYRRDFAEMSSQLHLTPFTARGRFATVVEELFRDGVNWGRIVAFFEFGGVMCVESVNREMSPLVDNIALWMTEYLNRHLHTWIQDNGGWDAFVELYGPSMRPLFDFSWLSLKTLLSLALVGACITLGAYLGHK

| Compound | Ki [nM] |
| --- | --- |
| CC1(C)CCC(CN2CCN(c3ccc(C(=O)NS(=O)(=O)c4ccc(OCC5(F)CCN(S(C)(=O)=O)CC5)c([N+](=O)[O-])c4)c(Oc4cnc5[nH]ccc5c4)c3)CC2)=C(c2ccc(Cl)cc2)C1 [Compound 194, 4-(4-{[2-(4-chlorophenyl)-4,4-dimethylcyclohex-1-en-1-yl]methyl}piperazin-1-yl)-N-[(4-{[4-fluoro-1-(methylsulfonyl)piperidin-4-yl]methoxy}-3-nitrophenyl)sulfonyl]-2-(1H-pyrrolo[2,3-b]pyridin-5-yloxy)benzamide] | < 0.01 |
| CC1(C)CCC(CN2CCN(c3ccc(C(=O)NS(=O)(=O)c4ccc(NC[C@H]5CCN(C6COC6)C5)c([N+](=O)[O-])c4)c(Oc4cnc5[nH]ccc5c4)c3)CC2)=C(c2ccc(Cl)cc2)C1 [Compound 195, 4-(4-{[2-(4-chlorophenyl)-4,4-dimethylcyclohex-1-en-1-yl]methyl}piperazin-1-yl)-N-{[3-nitro-4-({[(3R)-1-oxetan-3-ylpyrrolidin-3-yl]methyl}amino)phenyl]sulfonyl}-2-(1H-pyrrolo[2,3-b]pyridin-5-yloxy)benzamide] | < 0.01 |
| CN(C)CCCOc1ccc(CNc2ccc(S(=O)(=O)NC(=O)c3ccc(N4CCN(CC5=C(c6ccc(Cl)cc6)CC(C)(C)CC5)CC4)cc3Oc3cnc4[nH]ccc4c3)cc2[N+](=O)[O-])cc1 [Compound 197, 4-(4-{[2-(4-chlorophenyl)-4,4-dimethylcyclohex-1-en-1-yl]methyl}piperazin-1-yl)-N-{[4-({4-[3-(dimethylamino)propoxy]benzyl}amino)-3-nitrophenyl]sulfonyl}-2-(1H-pyrrolo[2,3-b]pyridin-5-yloxy)benzamide] | < 0.01 |
| CC1(C)CCC(CN2CCN(c3ccc(C(=O)NS(=O)(=O)c4ccc(NCc5ccc(OCCN6CCOCC6)cc5)c([N+](=O)[O-])c4)c(Oc4cnc5[nH]ccc5c4)c3)CC2)=C(c2ccc(Cl)cc2)C1 [Compound 198, 4-(4-{[2-(4-chlorophenyl)-4,4-dimethylcyclohex-1-en-1-yl]methyl}piperazin-1-yl)-N-[(4-{[4-(2-morpholin-4-ylethoxy)benzyl]amino}-3-nitrophenyl)sulfonyl]-2-(1H-pyrrolo[2,3-b]pyridin-5-yloxy)benzamide] | < 0.01 |
| CC1(C)CCC(CN2CCN(c3ccc(C(=O)NS(=O)(=O)c4ccc(NCC56CC7CC(C5)C(O)C(C7)C6)c([N+](=O)[O-])c4)c(Oc4cnc5[nH]ccc5c4)c3)CC2)=C(c2ccc(Cl)cc2)C1 (stereo not drawn) [Compound 199, 4-(4-{[2-(4-chlorophenyl)-4,4-dimethylcyclohex-1-en-1-yl]methyl}piperazin-1-yl)-N-{[4-({[(E)-4-hydroxy-1-adamantyl]methyl}amino)-3-nitrophenyl]sulfonyl}-2-(1H-pyrrolo[2,3-b]pyridin-5-yloxy)benzamide] | < 0.01 |
| CC1(C)CCC(CN2CCN(c3ccc(C(=O)NS(=O)(=O)c4ccc(NCC56CC7CC(C5)C(O)C(C7)C6)c([N+](=O)[O-])c4)c(Oc4cnc5[nH]ccc5c4)c3)CC2)=C(c2ccc(Cl)cc2)C1 (stereo not drawn) [Compound 200, 4-(4-{[2-(4-chlorophenyl)-4,4-dimethylcyclohex-1-en-1-yl]methyl}piperazin-1-yl)-N-{[4-({[(Z)-4-hydroxy-1-adamantyl]methyl}amino)-3-nitrophenyl]sulfonyl}-2-(1H-pyrrolo[2,3-b]pyridin-5-yloxy)benzamide] | < 0.01 |
| CN1CC(Nc2ccc(S(=O)(=O)NC(=O)c3ccc(N4CCN(CC5=C(c6ccc(Cl)cc6)CC(C)(C)CC5)CC4)cc3Oc3cnc4[nH]ccc4c3)cc2[N+](=O)[O-])CC1=O (stereo not drawn) [Compound 202, 4-(4-{[2-(4-chlorophenyl)-4,4-dimethylcyclohex-1-en-1-yl]methyl}piperazin-1-yl)-N-({4-[(1-methyl-5-oxopyrrolidin-3-yl)amino]-3-nitrophenyl}sulfonyl)-2-(1H-pyrrolo[2,3-b]pyridin-5-yloxy)benzamide] | < 0.01 |
| CC1(C)CCC(CN2CCN(c3ccc(C(=O)NS(=O)(=O)c4ccc(OCC5CCCC(=O)C5)c([N+](=O)[O-])c4)c(Oc4cnc5[nH]ccc5c4)c3)CC2)=C(c2ccc(Cl)cc2)C1 (stereo not drawn) [Compound 205, 4-(4-{[2-(4-chlorophenyl)-4,4-dimethylcyclohex-1-en-1-yl]methyl}piperazin-1-yl)-N-({3-nitro-4-[(3-oxocyclohexyl)methoxy]phenyl}sulfonyl)-2-(1H-pyrrolo[2,3-b]pyridin-5-yloxy)benzamide] | < 0.01 |
| CC1(C)CCC(CN2CCN(c3ccc(C(=O)NS(=O)(=O)c4ccc(NC[C@@H]5CCN(C6COC6)C5)c([N+](=O)[O-])c4)c(Oc4cnc5[nH]ccc5c4)c3)CC2)=C(c2ccc(Cl)cc2)C1 [Compound 209, 4-(4-{[2-(4-chlorophenyl)-4,4-dimethylcyclohex-1-en-1-yl]methyl}piperazin-1-yl)-N-{[3-nitro-4-({[(3S)-1-oxetan-3-ylpyrrolidin-3-yl]methyl}amino)phenyl]sulfonyl}-2-(1H-pyrrolo[2,3-b]pyridin-5-yloxy)benzamide] | < 0.01 |
| COCCOCCN1CCOC(CNc2ccc(S(=O)(=O)NC(=O)c3ccc(N4CCN(CC5=C(c6ccc(Cl)cc6)CC(C)(C)CC5)CC4)cc3Oc3cnc4[nH]ccc4c3)cc2[N+](=O)[O-])C1 (stereo not drawn) [Compound 213, 4-(4-{[2-(4-chlorophenyl)-4,4-dimethylcyclohex-1-en-1-yl]methyl}piperazin-1-yl)-N-({4-[({4-[2-(2-methoxyethoxyl)ethyl]morpholin-2-yl}methyl)amino]-3-nitrophenyl}sulfonyl)-2-(1H-pyrrolo[2,3-b]pyridin-5-yloxy)benzamide] | < 0.01 |
| CC1(C)CCC(CN2CCN(c3ccc(C(=O)NS(=O)(=O)c4ccc(NCC5CN(CC#N)CCO5)c([N+](=O)[O-])c4)c(Oc4cnc5[nH]ccc5c4)c3)CC2)=C(c2ccc(Cl)cc2)C1 (stereo not drawn) [Compound 214, 4-(4-{[2-(4-chlorophenyl)-4,4-dimethylcyclohex-1-en-1-yl]methyl}piperazin-1-yl)-N-{[4-({[4-(cyanomethyl)morpholin-2-yl]methyl}amino)-3-nitrophenyl]sulfonyl}-2-(1H-pyrrolo[2,3-b]pyridin-5-yloxy)benzamide] | < 0.01 |
| CN(C)CC(=O)N1CCOC(CNc2ccc(S(=O)(=O)NC(=O)c3ccc(N4CCN(CC5=C(c6ccc(Cl)cc6)CC(C)(C)CC5)CC4)cc3Oc3cnc4[nH]ccc4c3)cc2[N+](=O)[O-])C1 (stereo not drawn) [Compound 215, 4-(4-{[2-(4-chlorophenyl)-4,4-dimethylcyclohex-1-en-1-yl]methyl}piperazin-1-yl)-N-{[4-({[4-(N,N-dimethylglycyl)morpholin-2-yl]methyl}amino)-3-nitrophenyl]sulfonyl}-2-(1H-pyrrolo[2,3-b]pyridin-5-yloxy)benzamide] | < 0.01 |
| CC1(C)CCC(CN2CCN(c3ccc(C(=O)NS(=O)(=O)c4ccc(NCC5CN(CC(=O)O)CCO5)c([N+](=O)[O-])c4)c(Oc4cnc5[nH]ccc5c4)c3)CC2)=C(c2ccc(Cl)cc2)C1 (stereo not drawn) [Compound 216, (2-{[(4-{[4-(4-{[2-(4-chlorophenyl)-4,4-dimethylcyclohex-1-en-1-yl]methyl}piperazin-1-yl)-2-(1H-pyrrolo[2,3-b]pyridin-5-yloxy)benzoyl]sulfamoyl}-2-nitrophenyl)amino]methyl}morpholin-4-yl)acetic acid] | < 0.01 |
| CC1(C)CCC(CN2CCN(c3ccc(C(=O)NS(=O)(=O)c4ccc(NCC5CN(C6COC6)CCO5)c([N+](=O)[O-])c4)c(Oc4cnc5[nH]ccc5c4)c3)CC2)=C(c2ccc(Cl)cc2)C1 (stereo not drawn) [Compound 217, 4-(4-{[2-(4-chlorophenyl)-4,4-dimethylcyclohex-1-en-1-yl]methyl}piperazin-1-yl)-N-{[3-nitro-4-({[4-(oxetan-3-yl)morpholin-2-yl]methyl}amino)phenyl]sulfonyl}-2-(1H-pyrrolo[2,3-b]pyridin-5-yloxy)benzamide] | < 0.01 |
| CC1(C)CCC(CN2CCN(c3ccc(C(=O)NS(=O)(=O)c4ccc(NC5CCN(C(C)(C)C)CC5)c([N+](=O)[O-])c4)c(Oc4cnc5[nH]ccc5c4)c3)CC2)=C(c2ccc(Cl)cc2)C1 [Compound 227, N-({4-[(1-tert-butylpiperidin-4-yl)amino]-3-nitrophenyl}sulfonyl)-4-(4-{[2-(4-chlorophenyl)-4,4-dimethylcyclohex-1-en-1-yl]methyl}piperazin-1-yl)-2-(1H-pyrrolo[2,3-b]pyridin-5-yloxy)benzamide] | < 0.01 |
| CC1(C)CCC(CN2CCN(c3ccc(C(=O)NS(=O)(=O)c4ccc(N[C@@H]5CCOC5)c([N+](=O)[O-])c4)c(Oc4cnc5[nH]ccc5c4)c3)CC2)=C(c2ccc(Cl)cc2)C1 [Compound 238, 4-(4-{[2-(4-chlorophenyl)-4,4-dimethylcyclohex-1-en-1-yl]methyl}piperazin-1-yl)-N-({3-nitro-4-[(3R)-tetrahydrofuran-3-ylamino]phenyl}sulfonyl)-2-(1H-pyrrolo[2,3-b]pyridin-5-yloxy)benzamide] | < 0.01 |
| CC1(C)CCC(CN2CCN(c3ccc(C(=O)NS(=O)(=O)c4ccc(NC5CCN(C(C)(C)C)CC5)c(S(=O)(=O)C(F)(F)F)c4)c(Oc4cnc5[nH]ccc5c4)c3)CC2)=C(c2ccc(Cl)cc2)C1 [Compound 240, N-({4-[(1-tert-butylpiperidin-4-yl)amino]-3-[(trifluoromethyl)sulfonyl]phenyl}sulfonyl)-4-(4-{[2-(4-chlorophenyl)-4,4-dimethylcyclohex-1-en-1-yl]methyl}piperazin-1-yl)-2-(1H-pyrrolo[2,3-b]pyridin-5-yloxy)benzamide] | < 0.01 |
| CC1(C)CCC(CN2CCN(c3ccc(C(=O)NS(=O)(=O)c4ccc(NCC5CN(C6COC6)CCO5)c(S(=O)(=O)C(F)(F)F)c4)c(Oc4cnc5[nH]ccc5c4)c3)CC2)=C(c2ccc(Cl)cc2)C1 (stereo not drawn) [Compound 241, 4-(4-{[2-(4-chlorophenyl)-4,4-dimethylcyclohex-1-en-1-yl]methyl}piperazin-1-yl)-N-({4-({[4-(oxetan-3-yl)morpholin-2-yl]methyl}amino)-3-[(trifluoromethyl)sulfonyl]phenyl}sulfonyl)-2-(1H-pyrrolo[2,3-b]pyridin-5-yloxy)benzamide] | < 0.01 |
